Results published in PubChem BioAssay (NCI).
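Results reflect a 48-hour exposure of cells in 96-well plates to compound at five concentrations. GI50 = concentration required for 50% inhibition of growth. TGI marks complete inhibition of growth.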

Experiments:
Assay in all cases: NCI tumour cell line growth inhibition, 48 h
[1] = test system: OVCAR-5 ovarian
[2] = test system: NCI-H226 lung
[3] = test system: SF-539 CNS
[4] = test system: HT29 colon
[5] = test system: HCT-116 colon
[6] = test system: COLO 205 colon
[7] = test system: MDA-MB-231 breast
[8] = test system: HS 578T breast
[9] = test system: MDA-MB-435
[10] = test system: T-47D breast

CC(C)COC(=O)N1N=NC2C3OC(CC3=O)C21 (stereo not drawn)
TGI [1]: > 100 µM | TGI [2]: > 100 µM | TGI [3]: > 100 µM | TGI [4]: > 100 µM | TGI [5]: > 100 µM | TGI [6]: > 100 µM

CCOC(=O)c1cc2c(n1Cc1cc(OC)cc(OC)c1)-c1oncc1CCC2
GI50 [7]: 0.439 µM | TGI [7]: > 24.5 µM | GI50 [1]: 0.294 µM | TGI [1]: > 100 µM | GI50 [2]: 23 µM | TGI [2]: > 100 µM | GI50 [8]: 0.0492 µM | TGI [8]: > 100 µM | GI50 [3]: 0.0495 µM | TGI [3]: 0.203 µM | GI50 [4]: 0.0499 µM | TGI [4]: 20.1 µM | GI50 [5]: 0.0588 µM | TGI [5]: > 100 µM | GI50 [6]: 0.0647 µM | TGI [6]: 6.15 µM | GI50 [9]: 0.0313 µM | TGI [9]: 0.112 µM

O=C1CCC2CCc3cccc4oc1c2c34 (stereo not drawn)
TGI [3]: > 100 µM | TGI [4]: > 100 µM | TGI [5]: > 100 µM | TGI [6]: > 100 µM

CCNc1c(C(=O)N(CC)CC)c(=O)[nH]c2ncccc12
TGI [1]: > 100 µM | TGI [2]: > 100 µM | TGI [3]: > 100 µM | TGI [4]: > 100 µM | TGI [5]: > 100 µM | TGI [6]: > 100 µM

CS(=O)(=O)OCCN1CCN(C(=O)c2cccc3c(Nc4ccc(S(N)(=O)=O)cc4)c4ccccc4nc23)CC1
TGI [1]: > 100 µM | TGI [2]: > 100 µM | TGI [3]: > 100 µM | TGI [4]: > 100 µM | TGI [5]: > 57.7 µM | TGI [6]: > 82.8 µM

CC1=C(C)CC2(SC1)C(=O)c1ccccc1C2=O
TGI [1]: > 100 µM | TGI [2]: > 100 µM | TGI [3]: > 100 µM | TGI [4]: > 100 µM | TGI [5]: > 100 µM | TGI [6]: > 100 µM

O=C(O)CNS(=O)(=O)c1ccc(NC(=O)c2ccc(F)cc2)cc1
TGI [1]: > 100 µM | TGI [3]: > 100 µM | TGI [4]: > 100 µM | TGI [6]: > 100 µM

CSc1ccc(-c2cc(-c3ccc(NC(=O)CCCN4CCCC4)cc3)nc(-c3ccc(NC(=O)CCCN4CCCC4)cc3)c2)cc1
GI50 [7]: 1.85 µM | TGI [7]: 3.69 µM | GI50 [1]: 2.28 µM | TGI [1]: 4.86 µM | GI50 [2]: 3.12 µM | TGI [2]: 16.1 µM | GI50 [8]: 2.28 µM | TGI [8]: 6.38 µM | GI50 [3]: 2.52 µM | TGI [3]: 7.54 µM | GI50 [4]: 1.71 µM | TGI [4]: 3.13 µM | GI50 [6]: 2.05 µM | TGI [6]: 4.39 µM | GI50 [10]: 6.52 µM | TGI [10]: 21.7 µM | GI50 [9]: 1.68 µM | TGI [9]: 3.06 µM

Cc1[nH]c(C(=O)Nc2ccc(C(=O)N3CCNCC3)cc2OC(C)C)c(Cl)c1Cl
GI50 [7]: 1.67 µM | TGI [7]: 3.33 µM | GI50 [1]: 1.79 µM | TGI [1]: 4.04 µM | GI50 [2]: 2.5 µM | TGI [2]: 5.79 µM | GI50 [8]: 1.74 µM | TGI [8]: 3.91 µM | GI50 [3]: 1.73 µM | TGI [3]: 3.19 µM | GI50 [4]: 1.76 µM | TGI [4]: 3.26 µM | GI50 [5]: 1.85 µM | TGI [5]: 3.41 µM | GI50 [10]: 1.91 µM | TGI [10]: 4.62 µM | GI50 [9]: 1.76 µM | TGI [9]: 3.23 µM

N=S(=O)(c1ccccc1)c1ccccc1[N+](=O)[O-] (stereo not drawn)
TGI [1]: > 100 µM | TGI [2]: > 100 µM | TGI [3]: > 100 µM | TGI [4]: > 100 µM | TGI [5]: > 100 µM | TGI [6]: > 100 µM

COc1ccc(C(O)c2cc3c(N)c(C(=O)Nc4cccc(Cl)c4C)sc3nc2C)cc1 (stereo not drawn)
GI50 [7]: 0.781 µM | TGI [7]: 1.57 µM | GI50 [1]: 0.932 µM | TGI [1]: 1.92 µM | GI50 [2]: 1.04 µM | TGI [2]: 3.15 µM | GI50 [8]: 0.774 µM | TGI [8]: 1.79 µM | GI50 [3]: 0.818 µM | TGI [3]: 1.54 µM | GI50 [4]: 0.768 µM | TGI [4]: 1.72 µM | GI50 [10]: 0.953 µM | TGI [10]: 2.2 µM | GI50 [9]: 0.825 µM | TGI [9]: 1.56 µM

NS(=O)(=O)c1ccc(C2C3=C(CCCC3=O)OC3=C2C(=O)c2ccccc2C3=O)cc1 (stereo not drawn)
GI50 [7]: 0.318 µM | TGI [7]: 0.938 µM | GI50 [1]: 1.7 µM | TGI [1]: 3.51 µM | GI50 [2]: 1.75 µM | TGI [2]: 3.36 µM | GI50 [8]: 1.27 µM | TGI [8]: 9.4 µM | GI50 [3]: 0.277 µM | TGI [3]: 0.761 µM | GI50 [4]: 1.07 µM | TGI [4]: 5.17 µM | GI50 [5]: 0.253 µM | TGI [5]: 0.725 µM | GI50 [6]: 0.348 µM | TGI [6]: 1.29 µM | GI50 [9]: 0.19 µM | TGI [9]: 0.357 µM

O=C1O[C@H](C(Cl)(Cl)Cl)N2CCCC12 (stereo partly drawn)
TGI [1]: > 100 µM | TGI [2]: > 100 µM | TGI [3]: > 100 µM | TGI [4]: > 100 µM | TGI [6]: > 100 µM

O=c1[nH]c(-c2ccccc2)nc2ccc(Cl)cc12
TGI [1]: > 100 µM | TGI [2]: > 100 µM | TGI [3]: > 100 µM | TGI [4]: > 100 µM | TGI [5]: > 100 µM | TGI [6]: > 100 µM

C=C1C(=O)O[C@H]2[C@H]1CC/C(CNC(=O)/C=C/c1cccc(OC)c1)=C\CC[C@@]1(C)O[C@@H]21
GI50 [7]: 1.79 µM | TGI [7]: 4.07 µM | GI50 [1]: 2.05 µM | TGI [1]: 5.36 µM | GI50 [2]: 1.82 µM | TGI [2]: 4.84 µM | GI50 [8]: 2.2 µM | TGI [8]: 11.2 µM | GI50 [3]: 1.27 µM | TGI [3]: 2.98 µM | GI50 [4]: 1.22 µM | TGI [4]: 2.81 µM | GI50 [5]: 0.545 µM | TGI [5]: 1.94 µM | GI50 [6]: 1.34 µM | TGI [6]: 2.85 µM | GI50 [9]: 1.53 µM | TGI [9]: 5.04 µM

CCOP(=O)(OCC)/C(=C\N1C(=O)CC(=O)NC1=S)C(=O)OC
TGI [7]: > 100 µM | TGI [1]: > 100 µM | TGI [2]: > 100 µM | TGI [3]: > 100 µM | TGI [4]: > 100 µM | TGI [5]: > 100 µM | TGI [6]: > 100 µM | TGI [10]: > 100 µM | TGI [9]: > 100 µM

Nc1ccc(N=Nc2ccccc2)c(N)n1
GI50 [7]: 18 µM | TGI [7]: 73.7 µM | GI50 [1]: 40.3 µM | TGI [1]: > 100 µM | GI50 [2]: 62.6 µM | TGI [2]: > 100 µM | GI50 [3]: 29.9 µM | TGI [3]: > 100 µM | GI50 [4]: 34.5 µM | TGI [4]: > 100 µM | GI50 [5]: 23 µM | TGI [5]: 60.5 µM | GI50 [6]: 26.1 µM | TGI [6]: 72.8 µM | GI50 [10]: 23.4 µM | TGI [10]: > 100 µM | GI50 [9]: 22.4 µM | TGI [9]: 80.1 µM

O=C(Nc1c(Cl)cc([N+](=O)[O-])cc1Cl)C(=O)C1C(=O)NC(=S)NC1=O
TGI [7]: > 100 µM | TGI [1]: > 100 µM | TGI [2]: > 100 µM | TGI [8]: > 100 µM | TGI [3]: > 100 µM | TGI [4]: > 100 µM | TGI [5]: > 100 µM | TGI [10]: > 100 µM | TGI [9]: > 100 µM

CS(=O)(=O)N(CCC#N)c1ccc(/C=N/NC(=O)CC(=O)Nc2cccc(Cl)c2)cc1
TGI [1]: > 100 µM | TGI [2]: > 100 µM | TGI [3]: > 100 µM | TGI [4]: > 100 µM | TGI [5]: > 100 µM | TGI [6]: > 100 µM

COc1cccc2c1C1(O)C2CCCC12OCCCO2 (stereo not drawn)
TGI [1]: > 100 µM | TGI [2]: > 100 µM | TGI [3]: > 100 µM | TGI [4]: > 100 µM | TGI [5]: > 100 µM | TGI [6]: > 100 µM
